In ChEMBL document CHEMBL1147725, “Identification and biological characterization of 6-aryl-7-isopropylquinazolinones as novel TRPV1 antagonists that are effective in models of chronic pain” (J Med Chem, 2006):

Target: Transient receptor potential cation channel subfamily V member 1 (Homo sapiens, UniProt Q8NER1)
Test: Inhibition of calcium influx evoked by capsaicin in human TRPV1 expressing cells by fluorescence assay
Assay type: functional

Transient receptor potential cation channel subfamily V member 1, sequence (Q8NER1 whole entry): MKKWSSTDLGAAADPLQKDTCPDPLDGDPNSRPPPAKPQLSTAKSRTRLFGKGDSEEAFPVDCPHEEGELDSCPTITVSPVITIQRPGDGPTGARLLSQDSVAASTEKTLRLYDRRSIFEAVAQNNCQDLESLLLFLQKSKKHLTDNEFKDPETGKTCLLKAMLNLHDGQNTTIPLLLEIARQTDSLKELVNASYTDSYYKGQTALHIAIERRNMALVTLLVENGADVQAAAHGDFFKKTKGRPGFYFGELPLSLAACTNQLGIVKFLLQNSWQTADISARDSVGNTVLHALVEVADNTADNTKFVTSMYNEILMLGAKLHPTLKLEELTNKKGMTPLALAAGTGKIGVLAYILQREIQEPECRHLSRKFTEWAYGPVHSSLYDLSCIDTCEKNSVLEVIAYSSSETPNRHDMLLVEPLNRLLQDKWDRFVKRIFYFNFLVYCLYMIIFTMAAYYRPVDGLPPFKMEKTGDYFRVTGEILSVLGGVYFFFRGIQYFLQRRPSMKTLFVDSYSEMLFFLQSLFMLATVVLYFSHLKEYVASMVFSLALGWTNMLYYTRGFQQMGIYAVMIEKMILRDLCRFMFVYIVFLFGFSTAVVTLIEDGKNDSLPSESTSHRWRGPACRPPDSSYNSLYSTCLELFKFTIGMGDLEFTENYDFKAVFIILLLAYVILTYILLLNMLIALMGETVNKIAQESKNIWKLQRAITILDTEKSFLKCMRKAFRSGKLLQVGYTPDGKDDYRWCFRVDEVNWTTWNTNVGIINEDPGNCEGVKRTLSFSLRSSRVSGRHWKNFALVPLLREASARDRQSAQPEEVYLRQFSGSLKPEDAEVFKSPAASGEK

IC50 | Compound
133 nM | CC(C)c1cc2nc(N)[nH]c(=O)c2cc1-c1ccc(Cl)cc1
216 nM | COCCOc1cc(-c2cc3c(=O)[nH]c(C)nc3cc2C(C)C)ccc1Cl
